In paper PMC11274654 (Biomedicines, 2024):

Legend:
[1] = tested on: mouse BMSCs (mBMSCs); assay: Nodule mineralization (Alizarin Red S) in mBMSCs; assay type: cell-based; details: 21 days post-treatment, differentiation medium
Method: (§1) Rat and mouse BMSCs were seeded at a density of 1 × 10^6 cells/well in a 6-well plate, vehicle or MTZ (1 nM) treatment was conducted, and the media were changed every alternate day for 21 days using a differentiation medium [10% FBS, β-glycerophosphate (10 mM), ascorbic acid (50 µg/mL), and dexamethasone (100 nM) in α-MEM].
(§2) Cells were fixed with 10% formalin for 15 min and stained with Alizarin Red for 1 h after 21 days of culture. Moreover, 10% cetylpyridinium chloride (Sigma #C0732) was used to quantify mineralized nodules at a 595 nm wavelength.

[2] = tested on: Wnt/β-catenin signaling (TOP-Flash reporter, HEK293T cells); assay: Wnt/β-catenin TOP-Flash reporter assay; assay type: cell-based; details: 24 h
Method: The effect of MTZ on β-catenin signaling was assayed using a TOP-Flash reporter plasmid that contained a minimal TA viral promoter coupled to β-catenin-responsive TCF/LEF-binding sites upstream of a firefly luciferase gene (a kind gift from Prof. Yosef Yarden, WIS, Israel). Briefly, HEK293T cells were transfected with 0.5 μg of the TOP-Flash plasmid. Additionally, the GFP-encoding plasmid, pEGFP, was transfected as a control for transfection efficiency. […] In white opaque plates, the lysate and 100 μL of luciferase assay buffer (10 mM KH2PO4, 2 mM ATP, 1 mM D-luciferin, NaCl, and MgCl2) were added, and luminescence was measured. Luminescence values were normalized by EGFP plasmid fluorescence value, and the fold-change was calculated relative to the control.

[3] = tested on: femur head strength of OVX rats; assay: OVX osteopenia model, femur head compression test; assay type: in vivo, SD rats; details: 235 mg/kg oral, 3 months
Method: The 10-month-old (265 ± 20 g) SD rats were ovariectomized (OVX) bilaterally and left for 3 months to develop osteopenia. Ovary-intact sham-operated animals were used as a control. A live animal micro-CT was performed to confirm osteopenia, followed by dividing the animals into 3 groups: Sham + vehicle (water, oral), OVX + vehicle (water, oral), and OVX + MTZ (235 mg/kg, oral). Each group had 9 rats, and treatment were administered for 3 months. Calcein (20 mg/kg, s.c.) was injected twice before sacrificing at 10-day intervals. The mechanical compression strength of the femur head was examined by a compression test with a bone strength tester, TK […] (Muromachi Kikai Co., Ltd., Tokyo, Japan), as described before.

[4] = tested on: mouse BMSCs (mBMSCs); assay: ALP activity in mouse bone marrow stromal cells; assay type: cell-based; details: 1 nM, seven days post-treatment
[5] = tested on: bone regeneration at the femur osteotomy site; assay: Femur osteotomy model, oral MTZ; assay type: in vivo, Sprague Dawley rats; details: 117 mg/kg and 235 mg/kg oral daily, 12 days
Method: (§3) Femur osteotomy was carried out in adult female Sprague Dawley (SD) rats (200 ± 20 g, 3 months old) and 3-month post-ovariectomized osteopenic SD rats (280 ± 20 g, 6 months old) by inserting a drill bit with a diameter of 0.8 mm from the anterior to the posterior mid-diaphysis of the right femur.
(§4) The human equivalent dose for rats is 235 mg/kg; half of this amount, 117 mg/kg, was used for the study. Doses of MTZ (117 mg/kg and 235 mg/kg) were administered daily by the oral route for 12 days. For the formulation study, MTZ@In situ gel and unformulated MTZ were administered every 3 days (total of 4 injections) for a period of 12 days via the subcutaneous route in the osteotomy animal. Each rat received 20 mg/kg, s.c. of bone-seeking fluorochrome calcein 24 h before sacrifice in order to evaluate the new bone formation at the fractured callus.
(§5) A SkyScan 1076 μCT scanner (SkyScan, Ltd., Kartuizersweg, Kontich, Belgium) was used to perform a high-resolution μCT for the two-dimensional and three-dimensional assessment of excised bones. The rat bone scanning process used an isotropic voxel pixel size of 18 μm and an X-ray source of 70 kV and […]. Utilizing the SkyScan Nrecon software (Version: 1.7.0.4), cross-sectional reconstruction was performed. […] The Batman software (Version: 1.16.8.0+), with trabecular (3D) bone analysis programs was used for quantification.

[6] = tested on: rat BMSCs (rBMSCs); assay: Nodule mineralization (Alizarin Red S) in rBMSCs; assay type: cell-based; details: 21 days post-treatment, differentiation medium
Method: as §1, §2

[7] = tested on: Runx2 expression in C3H10T1/2 cells; assay: Western blotting of Runx2 in C3H10T1/2 cells; assay type: cell-based, murine; details: 10 nM
Method: Western blotting was performed as previously described. Briefly, whole-cell extracts (WCEs) were prepared at indicated time points using RIPA lysis buffer, and aliquots of 30 μg protein per lane were loaded and resolved on SDS-PAGE (10%), followed by blotting onto the PVDF membrane (Millipore Inc., Burlington, MA, USA). The membrane was blocked in 1% BSA, followed by immunoblotting with primary antibodies: Runx2 (ab 76956) (1:1000), pGSK (9323S) (1:1000), and GSK (9315S) (1:1000) at 4 °C overnight. Anti-rabbit HRP secondary antibody (Sigma, catalog number A0545) (1:3000) was used for Runx2, pGSK3β, and GSK3β. Bands were detected by incubating the membranes with ECL substrate (Thermo Fisher Scientific, Waltham, MA, USA) and developed on ChemiDoc (Image Quant LAS 4000, GE Healthcare, Hatfield, UK). Blots were re-probed after washing with mild stripping buffer (1.5% Glycine, 0.1% SDS, and 1% Tween 20).

[8] = tested on: mouse BMSCs (mBMSCs); assay: BrdU proliferation assay in mBMSCs; assay type: cell-based; details: 1 nM
Method: Rat and mouse bone marrow stromal cells (BMSCs) were seeded at a density of 4000 cells/well in a 96-well plate for cell proliferation and treated with 1 nM of MTZ for 48 h in a growth medium (α-MEM containing 10% FBS). Following the MTZ treatment, the cells were incubated for 4 h with bromodeoxyuridine (BrdU) before termination. Cell proliferation was assessed at 450 nm using the Roche Diagnostics BrdU ELISA kit, in accordance with the manufacturer’s protocol, using a reference wavelength of 690 nm.

[9] = tested on: bone regeneration at the callus site in OVX rats; assay: Femur osteotomy model in osteopenic OVX rats, oral MTZ; assay type: in vivo, ovariectomized osteopenic SD rats; details: 235 mg/kg oral, 12 days
Method: as §3, §4, §5

In the case of `Cc1ncc([N+](=O)[O-])n1CCO` [Metronidazole], the “Osteogenic differentiation and mineralized nodule formation” value [1] is reported as “stimulated”, the TOP-Flash reporter activity [2] is reported as “increased” and the “Energy (femur head compression)” value [3] is reported as “reversed both parameters to sham levels”. For the same compound, the “Maximum power (femur head compression)” value [3] was “reversed both parameters to sham levels”, the “Stiffness (femur head compression)” value [3] was “failed to increase it” and the “ALP activity compared to the vehicle group” value [4] was “increased”. For the same compound, the “Bone volume at the osteotomy site” value [5] was “increased”, the “Calcein intensity at the osteotomy site” value [5] was “increased” and the “Osteogenic differentiation and mineralized nodule formation” value [6] was “stimulated”. For the same compound, the Runx2 expression [7] was “increased”, the “Proliferation (BrdU incorporation)” value [8] was “did not affect” and the “Bone volume at the callus site compared to the control group” value [9] was “increased”. For the same compound, the “Calcein intensity at the callus site compared to the control group” value [9] was “increased”.
